The target in assay [1] is PDK1 (Homo sapiens (Human), UniProt O15530). Description: PDK1 kinase assay (coupled PDK1/AKT/FAM-crosstide assay, IMAP fluorescence polarization). It is filed as biochemical. A digest of the protocol: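 GST-tagged human PDK1 (aa 51-359, 0.75 nM) from insect cells activated unphosphorylated GST-AKT2 (aa 140-467–PIFtide fusion, 10 nM), which phosphorylated 100 nM FAM-crosstide; 40 μM ATP, pH 7.2 Tris/MgCl2, 30 min at 25° C. IMAP fluorescence polarization read-out; ΔmP versus compound concentration fitted with a 4-parameter curve.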

Assay [2] deals with phospho-akt (Thr308) in PC-3 cells. Description: Inhibition of phospho-akt (Thr308) in PC-3 cells, MSD phospho-akt 308 ELISA kit. It is filed as cell-based. As to conditions: 2 hours, no serum, read-out: EC50. Summed up:
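Serum-free 2 h compound exposure of overnight-seeded PC-3 cells, threefold dilution series; lysates analysed on blocked MSD plates (3% BSA) for Thr308-phosphorylated Akt, normalised between DMSO and 5 μM wortmannin wells.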

Setting [3] is: Homo sapiens, inhibition of P308 Akt in PC-3 cells using MSD.
[4] abbreviates: inhibition of phospo-PDK1 in vitro.
Setting [5] is: Homo sapiens, inhibition of P308 Akt in PC-3 cells, MSD.

Counter-ions that a name gives are not always drawn. Like-named read-outs stand apart in the source and are kept apart here. Where only a bound is given, the exact number is not on record here.

Sequence of PDK1 (O15530 51-359): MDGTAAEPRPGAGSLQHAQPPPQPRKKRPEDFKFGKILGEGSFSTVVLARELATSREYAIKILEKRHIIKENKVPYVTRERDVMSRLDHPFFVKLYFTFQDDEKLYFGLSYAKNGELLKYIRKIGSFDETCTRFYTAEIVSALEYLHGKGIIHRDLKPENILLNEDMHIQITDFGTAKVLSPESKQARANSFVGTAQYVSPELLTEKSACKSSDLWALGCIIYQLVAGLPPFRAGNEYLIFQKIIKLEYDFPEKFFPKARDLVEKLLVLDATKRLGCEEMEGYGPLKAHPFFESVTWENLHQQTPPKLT

For `Nc1n[nH]c2ncc(-c3ccc(CNc4ncc(C(F)(F)F)cc4C(=O)NCC4CCOC4)cc3)cc12` (centres unmarked) [Example 268, 2-(4-(3-amino-1H-pyrazolo [3,4-b]pyridin-5-yl)benzylamino)-N-((tetrahydro-furan-3-yl)methyl)-5-(trifluoromethyl) nicotinamide], the IC50 in assay [1] (inhibition of PDK1 in vitro) lay within 100 to 1000 nM. Moreover, the EC50 in assay [2] (setting [3]) is above 10000 nM.

On to `Nc1n[nH]c2ncc(-c3ccc(CNc4ncc(C(F)(F)F)cc4C(=O)NCC4CC4)cc3)cc12` [Example 272, 2-(4-(3-amino-1H-pyrazolo [3,4-b]pyridin-5-yl)benzylamino)-N-(cyclopropylmethyl)-5-(trifluoromethyl) nicotinamide], for which the IC50 in assay [1] (inhibition of PDK1 in vitro) lay in the range of 100 to 1000 nM. The 50% effective concentration (EC50) in assay [2] (setting [3]) was in the range of 1000 to 10000 nM.

On to `C[C@H](NC(=O)c1cc(F)cnc1NCc1ccc(-c2ccc3ncnc(N)c3c2)s1)c1ccc(F)c(F)c1` [Example 7.13, 2-({[5-(4-aminoquinazolin-6-yl)thiophen-2-yl]methyl}amino)-N-[(1S)-1-(3,4-difluorophenyl)ethyl]-5-fluoropyridine-3-carboxamide], for which the IC50 in assay [1] (setting [4]) was 100 to 1000 nM. Besides, the EC50 in assay [2] (setting [5]) was below 1000 nM.

For the molecule `CCOC(=O)Nc1n[nH]c2ncc(-c3ccc(CNc4ncc(C#N)nc4C(=O)N[C@@H](C)c4ccc(F)c(F)c4)cc3)cc12` [Example 36, (S)-ethyl 5-(4-((5-cyano-3-(1-(3,4-difluorophenyl)ethylcarbamoyl)pyrazin-2-ylamino)methyl)phenyl)-1H-pyrazolo[3,4-b]pyridin-3-ylcarbamate], the IC50 in assay [1] (setting [4]) was below 100 nM. For the same molecule, the concentration giving a half-maximal response (EC50) in assay [2] (setting [5]) is below 1000 nM.

`N#Cc1cnc(NCc2ccc(-c3c[nH]c4ncnc(N)c34)cc2)c(-c2ncco2)c1` [Example 43, 6-(4-(4-amino-7H-pyrrolo[2,3-d]pyrimidin-5-yl)benzylamino)-5-(oxazol-2-yl)nicotinonitrile]: the IC50 in assay [1] (inhibition of PDK1 in vitro) was in the range of 1000 to 5000 nM. For the same molecule, the 50% effective concentration (EC50) in assay [2] (setting [3]) lay in the range of 1000 to 10000 nM.

The molecule `C[C@H](NC(=O)c1cc(C#N)cnc1NCc1ccc(-c2cnc3[nH]nc(CCCN)c3c2)cc1)c1ccc(F)cc1` [Example 150] came in with a half-inhibitory concentration (IC50) in assay [1] (inhibition of PDK1 in vitro) below 100 nM. In assay [2] (setting [3]), the 50% effective concentration (EC50) is below 1000 nM.

In assay [1] (setting [4]), `Cn1cnc2cnc(-c3ccc(CNc4nc5ccccc5cc4C(=O)NCc4ccc(F)c(F)c4)s3)cc21` [Example 8.14.2, N-(3,4-difluorobenzyl)-2-({[5-(1-methyl-1H-imidazo [4,5-c]pyridin-6-yl)thiophen-2-yl]methyl}amino)quinoline-3-carboxamide] had an IC50 above 5000 nM. For the same molecule, the concentration giving a half-maximal response (EC50) in assay [2] (setting [5]) is above 10000 nM.

In assay [1] (inhibition of PDK1 in vitro), `CN1CCN(Cc2ccc(NC(=O)c3cc(C(F)(F)F)cnc3NCc3ccc(-c4cnc5[nH]nc(N)c5c4)cc3)cc2)CC1` [Example 285, 2-(4-(3-amino-1H-pyrazolo [3,4-b]pyridin-5-yl)benzylamino)-N-(4-((4-methylpiperazin-1-yl)methyl)phenyl)-5-(trifluoromethyl)nicotinamide] had an IC50 of 1000 to 5000 nM. In addition, in assay [2] (setting [3]), the concentration for a half-maximal effect (EC50) was above 10000 nM.

In assay [1] (setting [4]), `Nc1ncnc2ccc(-c3ccc(CNc4ncccc4C(=O)Nc4ccc(Cl)cc4)s3)cc12` [Example 3.48, 2-({[5-(4-aminoquinazolin-6-yl)thiophen-2-yl]methyl}amino)-N-(4-chlorophenyl)pyridine-3-carboxamide (TFA salt)] showed an IC50 of 100 to 1000 nM. In assay [2] (setting [5]), the EC50 is above 10000 nM.

With `Nc1ncnc2[nH]nc(-c3ccc(CNc4ncc(C(F)(F)F)cc4C(=O)NCc4ccc(F)c(F)c4)cc3)c12` [Example 329, 2-[4-(4-Amino-1H-pyrazolo [3,4-d]pyrimidin-3-yl)-benzylamino]-N-(3,4-difluoro-benzyl)-5-trifluoromethyl-nicotinamide], the half-inhibitory concentration (IC50) in assay [1] (inhibition of PDK1 in vitro) was below 100 nM. Also, the EC50 in assay [2] (setting [3]) was below 1000 nM.

`C[C@H](NC(=O)c1cccnc1NCc1ccc(-c2cnc3[nH]c(=O)[nH]c3c2)cc1)c1ccc(F)c(F)c1` [Example 366, (S)-N-(1-(3,4-difluorophenyl)ethyl)-2-(4-(2-oxo-2,3-dihydro-1H-imidazo[4,5-b]pyridin-6-yl)benzylamino) nicotinamide] had a half-inhibitory concentration (IC50) in assay [1] (inhibition of PDK1 in vitro) below 100 nM. For the same molecule, the half-maximal effective concentration (EC50) in assay [2] (setting [3]) was below 1000 nM.

Molecule `Nc1ncnc2ccc(-c3ccc(CNc4ncccc4C(=O)NCc4ccc(F)cc4)s3)cc12` [Example 3.7, 2-({[5-(4-aminoquinazolin-6-yl)thiophen-2-yl]methyl}amino)-N-(4-fluorobenzyl)pyridine-3-carboxamide (TFA salt)] came in with an IC50 in assay [1] (setting [4]) below 100 nM. In addition, the EC50 in assay [2] (setting [5]) was below 1000 nM.

In assay [1] (setting [4]), `C[C@H](NC(=O)c1cc(C(F)(F)F)cnc1NCc1ccc(-c2cc3c(N)ncnc3cn2)s1)c1ccc(F)cc1` [Example 8.12.7, 2-({[5-(4-aminopyrido [3,4-d]pyrimidin-6-yl)thiophen-2-yl]methyl}amino)-N-[(1S)-1-(4-fluorophenyl)ethyl]-5-(trifluoromethyl) pyridine-3-carboxamide] had a concentration for half-maximal inhibition (IC50) of 100 to 1000 nM. The concentration for a half-maximal effect (EC50) in assay [2] (setting [5]) is below 1000 nM.

In assay [1] (setting [4]), `O=C(Nc1ccc(F)c(F)c1)c1cccnc1NCc1cccc(-c2c[nH]c3ncccc23)c1` [Example 1.14, N-(3,4-difluorophenyl)-2-{[3-(1H-pyrrolo[2,3-b]pyridin-3-yl)benzyl]amino}pyridine-3-carboxamide] registered an IC50 of 100 to 1000 nM. For the same molecule, the EC50 in assay [2] (Homo sapiens, PC-3, 2 h, inhibition of P308 Akt in PC-3 cells, MSD) fell in the range of 1000 to 10000 nM.

In turn, `CCOC(=O)c1cccnc1NCc1cc(OC(C)C)cc(-c2cn(S(=O)(=O)c3ccccc3)c3ncc(C(=O)NC4CC4)cc23)c1` [4.1.17] showed an IC50 in assay [1] (setting [4]) above 5000 nM. In addition, in assay [2] (inhibition of P308 Akt in PC-3 cells, MSD), the EC50 was above 10000 nM.

For `C[C@H](NC(=O)c1nc(C#N)cnc1NCc1ccc(-c2cnc(N)c(NCC(O)CO)n2)cc1)c1ccc(F)c(F)c1` (stereo partly drawn) [Example 244, 3-{4-[5-Amino-6-(2,3-dihydroxy-propylamino)-pyrazin-2-yl]-benzylamino}-6-cyano-pyrazine-2-carboxylic acid [(S)-1-(3,4-difluoro-phenyl)-ethyl]-amide], in assay [1] (inhibition of PDK1 in vitro), the IC50 is below 100 nM. For the same molecule, the EC50 in assay [2] (setting [3]) was below 1000 nM.

With `CC(C)Oc1cc(CNc2ncccc2C(=O)NC2CC2)cc(-c2c[nH]c3ncc(C(=O)NC4CC4)cc23)c1` [Example 4.1.7, N-cyclopropyl-3-[3-({[3-(cyclopropylcarbamoyl)pyridin-2-yl]amino}methyl)-5-(propan-2-yloxy)phenyl]-1H-pyrrolo[2,3-b] pyridine-5-carboxamide], the IC50 in assay [1] (setting [4]) fell in the range of 1000 to 5000 nM. Moreover, in assay [2] (setting [5]), the EC50 lay in the range of 1000 to 10000 nM.

`O=C1Nc2cc(/C=C/CNc3ncccc3C(=O)NCc3ccc(F)c(F)c3)ccc2/C1=C/c1cnc[nH]1` [Example 15.1, 2-((E)-3-((Z)-3-((1H-imidazol-5-yl)methylene)-2-oxoindolin-6-yl)allylamino)-N-(3,4-difluorobenzyl)nicotinamide]: the IC50 in assay [1] (setting [4]) was below 100 nM. In addition, the EC50 in assay [2] (setting [5]) is below 1000 nM.

For `Nc1n[nH]c2ncc(-c3ccc(CNc4ncc(C(F)(F)F)cc4C(=O)N[C@@H](CO)c4ccc(F)cc4)cc3)cc12` [Example 308, (R)-2-(4-(3-amino-1H-pyrazolo [3,4-b]pyridin-5-yl)benzylamino)-N-(1-(4-fluorophenyl)-2-hydroxyethyl)-5-(trifluoromethyl)nicotinamide], the half-maximal inhibitory concentration (IC50) in assay [1] (inhibition of PDK1 in vitro) was below 100 nM. In addition, in assay [2] (setting [3]), the half-maximal effective concentration (EC50) is below 1000 nM.

Regarding `Nc1n[nH]c2ncc(-c3ccc(CNc4ncc(C(F)(F)F)cc4C(=O)Nc4ccncc4)cc3)cc12` [Example 288, 2-(4-(3-amino-1H-pyrazolo [3,4-b]pyridin-5-yl)benzylamino)-N-(pyridin-4-yl)-5-(trifluoromethyl) nicotinamide], the IC50 in assay [1] (inhibition of PDK1 in vitro) was below 100 nM. For the same molecule, the EC50 in assay [2] (setting [3]) was 1000 to 10000 nM.

In assay [1] (setting [4]), `C[C@H](NC(=O)c1cccnc1NCc1cccc(-c2c[nH]c3ncnc(N)c23)c1)c1ccc(F)c(F)c1` [Example 2.30, (S)-2-(3-(4-amino-7H-pyrrolo[2,3-d]pyrimidin-5-yl)benzylamino)-N-(1-(3,4-difluorophenyl)ethyl) nicotinamide] yielded a 50% inhibitory concentration (IC50) below 100 nM. In addition, the half-maximal effective concentration (EC50) in assay [2] (setting [5]) lay within 1000 to 10000 nM.

As for `C[C@H](NC(=O)c1cc(C#N)cnc1NCc1ncc(-c2cnc3[nH]ncc3c2)cn1)c1ccc(F)cc1` [Example 64, 5-Cyano-N-[(S)-1-(4-fluoro-phenyl)-ethyl]-2-{[5-(1H-pyrazolo[3,4-b]pyridin-5-yl)-pyrimidin-2-ylmethyl]-amino}-nicotinamide], the IC50 in assay [1] (inhibition of PDK1 in vitro) was above 5000 nM. In assay [2] (setting [3]), the EC50 is above 10000 nM.

Consider `Nc1ncnc2c1c(-c1ccc(CNc3ncc(C(F)(F)F)cc3C(=O)NCc3ccc(F)c(F)c3)cc1)cn2CCO` [Example 333, 2-(4-(4-amino-7-(2-hydroxyethyl)-7H-pyrrolo[2,3-d]pyrimidin-5-yl)-benzylamino)-N-(3,4-difluorobenzyl)-5-(trifluoromethyl)nicotinamide], for which the 50% inhibitory concentration (IC50) in assay [1] (inhibition of PDK1 in vitro) is below 100 nM. Moreover, the concentration giving a half-maximal response (EC50) in assay [2] (setting [3]) is below 1000 nM.

As to `C[C@H](NC(=O)c1cccnc1NCc1ccc(-c2c[nH]c3ncnc(N)c23)s1)c1ccc(F)cc1` [Example 2.20, (S)-2-(((5-(4-amino-7H-pyrrolo[2,3-d]pyrimidin-5-yl)thiophen-2-yl)methyl)amino)-N-(1-(4-fluorophenyl)ethyl)nicotinamide], the 50% inhibitory concentration (IC50) in assay [1] (setting [4]) lay within 100 to 1000 nM. Also, in assay [2] (setting [5]), the EC50 was below 1000 nM.

On to `C[C@H](NC(=O)c1cccnc1NCc1ccc(-c2cnc3[nH]ncc3c2)cc1)c1ccc(F)c(F)c1` [Example 2.39, N-[(S)-1-(3,4-Difluoro-phenyl)-ethyl]-2-[4-(1H-pyrazolo[3,4-b]pyridin-5-yl)benzyl-amino]-nicotinamide], for which, in assay [1] (setting [4]), the IC50 was below 100 nM. For the same molecule, the concentration for a half-maximal effect (EC50) in assay [2] (setting [5]) was below 1000 nM.
